Key:
[1] = human, in vivo
[2] = Pharmacokinetics in patient blood samples, noncompartmental analysis; conditions: versus patients without; P=0.016; Fig. S3
[3] = system: γH2AX foci in hair follicles; assay: γH2AX foci formation in hair follicles as marker of DNA double-strand breaks; format: in vivo, human; conditions: hair follicles from eight patients
[4] = single-agent sacituzumab govitecan ref 35; cited from earlier work
[5] = system: SCLC; conditions: monotherapy, SCLC ref 45; cited from earlier work

Compound: CCc1c2c(nc3ccc(O[C@@H]4O[C@H](C(=O)O)[C@@H](O)[C@H](O)[C@H]4O)cc13)-c1cc3c(c(=O)n1C2)COC(=O)[C@]3(O)CC [SN-38G]
- SN-38G Cmax in patients experiencing fatigue [1]: higher

Compound: CCc1c2c(nc3ccc(O)cc13)-c1cc3c(c(=O)n1C2)COC(=O)[C@]3(O)CC [SN-38]
- SN-38 AUC in patients experiencing lymphopenia [2]: higher

Compound: sacituzumab govitecan
- γH2AX foci in hair follicles following sacituzumab govitecan [3]: substantial increase in the number and intensity of γH2AX foci
- Grade ≥ 3 neutropenia, fraction of patients [4]: about one-third
- Tumor responses [5]: led to tumor responses in SCLC
